{
  "source": "patent US7348425B2",
  "about": "“Inhibitors of HCV replication” (Bristol-Myers Squibb Company, priority 2004, dated 2008)",
  "key": {"HCV replicon": {"system": "HCV replicon", "experiment": "HCV replicon FRET assay", "assay_type": "cell-based", "settings": "Hepatitis C virus; FRET assay; read-out: EC50", "procedure,_shortened": "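Replicon cells (± Renilla luciferase reporter) incubated with titrated compound at 37 °C; NS3 protease activity read by FRET peptide cleavage (20 uM EDANS/DABCYL substrate, 340/490 nm kinetic) or luciferase.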"}, "[1]": {"molecular_target": "T1, HCV NS5B RdRp genotype 1b (Hepatitis C virus genotype 1b, UniProt Q9WMX2)", "T1 construct": "The protein was expressed with an 18 amino acid C-terminal truncation to enhance the solubility; made in house; host or cells: E. coli BL21 (DE3), pET21a", "T1 sequence (Q9WMX2 2420-2992)": "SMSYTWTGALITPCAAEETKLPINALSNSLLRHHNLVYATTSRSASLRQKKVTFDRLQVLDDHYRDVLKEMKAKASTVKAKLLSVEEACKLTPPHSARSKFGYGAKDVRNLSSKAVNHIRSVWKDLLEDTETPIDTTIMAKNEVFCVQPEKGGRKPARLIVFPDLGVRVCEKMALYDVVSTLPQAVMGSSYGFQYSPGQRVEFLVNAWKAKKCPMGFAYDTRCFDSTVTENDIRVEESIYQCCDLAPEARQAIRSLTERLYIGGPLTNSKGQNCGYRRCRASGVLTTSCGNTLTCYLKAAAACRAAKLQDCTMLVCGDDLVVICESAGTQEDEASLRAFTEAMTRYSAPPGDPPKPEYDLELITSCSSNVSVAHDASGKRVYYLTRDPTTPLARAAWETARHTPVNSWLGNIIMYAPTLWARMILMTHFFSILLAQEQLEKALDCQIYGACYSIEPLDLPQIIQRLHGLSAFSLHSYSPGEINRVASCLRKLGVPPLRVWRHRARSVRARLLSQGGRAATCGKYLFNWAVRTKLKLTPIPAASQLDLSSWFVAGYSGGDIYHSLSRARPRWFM", "experiment": "Modified HCV NS5B RdRp enzyme assay (with preincubation)", "assay_type": "biochemical", "procedure,_shortened": "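C-terminally truncated (Δ18) genotype 1b NS5B from E. coli was preincubated (14 nM) with compound, then reaction started with polyA template (0.2 nM), ³H-UTP (0.29 μM) and dT12 primer (20 nM) precaptured on SPA beads. Reaction ran 4 h at 30 °C in pH 7.5 Hepes buffer with 2% DMSO. IC50 came from seven concentrations.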"}, "[2]": {"settings": "modified method (with preincubation)"}},
  "data": [
    {"compound": "COC(=O)c1ccc2c(C3CCCCC3)c3n(c2c1)C=C(C#N)Cc1ccccc1-3", "values": [
      {"measurement": "EC50", "setting": "HCV replicon", "result": "10 to 1000", "unit": "nM"},
      {"measurement": "IC50", "setting": "[1]; [2]", "result": "> 1000", "unit": "nM"}
    ]},
    {"compound": "COC(=O)/C=C/c1ccc(CN(C)S(=O)(=O)NC(=O)c2ccc3c(C4CCCCC4)c4n(c3c2)CC(=O)Nc2ccccc2-4)cc1", "values": [
      {"measurement": "EC50", "setting": "HCV replicon", "result": "10 to 1000", "unit": "nM"},
      {"measurement": "IC50", "setting": "[1]; [2]", "result": "20 to 1000", "unit": "nM"}
    ]},
    {"compound": "O=C(NS(=O)(=O)C1CC1)c1ccc2c(C3CCCCC3)c3n(c2c1)CC(C(=O)N1CCOCC1)=Cc1ccccc1-3", "values": [
      {"measurement": "EC50", "setting": "HCV replicon", "result": "10 to 1000", "unit": "nM"},
      {"measurement": "IC50", "setting": "[1]; [2]", "result": "20 to 1000", "unit": "nM"}
    ]},
    {"compound": "COC(=O)C1=Cc2cc(Cl)ccc2-c2c(C3CCCCC3)c3ccc(C(=O)OC)cc3n2C1", "values": [
      {"measurement": "EC50", "setting": "HCV replicon", "result": "1000 to 10000", "unit": "nM"},
      {"measurement": "IC50", "setting": "[1]; [2]", "result": "> 1000", "unit": "nM"}
    ]},
    {"compound": "CS(=O)(=O)NC(=O)c1ccc2c(C3CCCCC3)c3n(c2c1)CCCc1ncccc1-3", "values": [
      {"measurement": "EC50", "setting": "HCV replicon", "result": "1000 to 10000", "unit": "nM"},
      {"measurement": "IC50", "setting": "[1]; [2]", "result": "20 to 1000", "unit": "nM"}
    ]},
    {"compound": "O=C(NS(=O)(=O)C1CC1)c1ccc2c(C3CCCCC3)c3n(c2c1)CCCc1ncccc1-3", "values": [
      {"measurement": "EC50", "setting": "HCV replicon", "result": "10 to 1000", "unit": "nM"},
      {"measurement": "IC50", "setting": "[1]; [2]", "result": "20 to 1000", "unit": "nM"}
    ]},
    {"compound": "C[C@@H]1CN(C(=O)C2=Cc3ccccc3-c3c(C4CCCCC4)c4ccc(C(=O)NC5(C(=O)Nc6ccc(-n7cncn7)cc6)CCCC5)cc4n3C2)C[C@H](C)O1", "values": [
      {"measurement": "EC50", "setting": "HCV replicon", "result": "50 to 1000", "unit": "nM"},
      {"measurement": "IC50", "setting": "[1]; preincubation protocol", "result": "10 to 1000", "unit": "nM"}
    ]},
    {"compound": "COC(=O)/C=C/c1ccc(NC(=O)C2(NC(=O)c3ccc4c(C5CCCCC5)c5n(c4c3)C[C@@H](O)[C@@H](O)c3ncccc3-5)CCCC2)cc1", "values": [
      {"measurement": "EC50", "setting": "HCV replicon", "result": "10 to 1000", "unit": "nM"},
      {"measurement": "IC50", "setting": "[1]; [2]", "result": "20 to 1000", "unit": "nM"}
    ]},
    {"compound": "CC(C)(C)OC(=O)N1CCn2c(c(C3CCCCC3)c3ccc(C(=O)NS(C)(=O)=O)cc32)-c2ccccc21", "values": [
      {"measurement": "EC50", "setting": "HCV replicon", "result": "10 to 1000", "unit": "nM"},
      {"measurement": "IC50", "setting": "[1]; [2]", "result": "20 to 1000", "unit": "nM"}
    ]},
    {"compound": "COc1ccc2c(c1)CC(C(=O)N1C[C@@H](C)N[C@@H](C)C1)Cn1c-2c(C2CCCCC2)c2ccc(C(=O)NS(=O)(=O)N(C)C)cc21", "note": "(stereo partly shown)", "values": [
      {"measurement": "EC50", "setting": "HCV replicon", "result": "50 to 1000", "unit": "nM"},
      {"measurement": "IC50", "setting": "[1]; preincubation protocol", "result": "10 to 1000", "unit": "nM"}
    ]},
    {"compound": "CN(C)S(=O)(=O)NC(=O)c1ccc2c(C3CCCCC3)c3n(c2c1)CC=Cc1ncccc1-3", "values": [
      {"measurement": "EC50", "setting": "HCV replicon", "result": "1000 to 10000", "unit": "nM"},
      {"measurement": "IC50", "setting": "[1]; [2]", "result": "20 to 1000", "unit": "nM"}
    ]},
    {"compound": "Cc1nc2c(s1)CCCn1c-2c(C2CCCCC2)c2ccc(C(=O)NC3(C(=O)Nc4ccc(/C=C/C(=O)O)cc4)CCCC3)cc21", "values": [
      {"measurement": "EC50", "setting": "HCV replicon", "result": "1000 to 10000", "unit": "nM"},
      {"measurement": "IC50", "setting": "[1]; [2]", "result": "20 to 1000", "unit": "nM"}
    ]},
    {"compound": "COc1ccc2c(c1)C=C(C(=O)N1CCOCC1)Cn1c-2c(C2CCCCC2)c2ccc(C(=O)NS(=O)(=O)C3CC3)cc21", "values": [
      {"measurement": "EC50", "setting": "HCV replicon", "result": "50 to 1000", "unit": "nM"},
      {"measurement": "IC50", "setting": "[1]; preincubation protocol", "result": "10 to 1000", "unit": "nM"}
    ]},
    {"compound": "O=C1Cn2c(c(C3CCCCC3)c3ccc(C(=O)NC4(C(=O)Nc5nccs5)CCCC4)cc32)-c2ccccc2N1", "values": [
      {"measurement": "EC50", "setting": "HCV replicon", "result": "10 to 1000", "unit": "nM"},
      {"measurement": "IC50", "setting": "[1]; [2]", "result": "20 to 1000", "unit": "nM"}
    ]},
    {"compound": "COC(=O)c1ccc2c(C3CCCCC3)c3n(c2c1)CC(C(=O)N1CCOCC1)Cc1ccncc1-3", "note": "(stereo not shown)", "values": [
      {"measurement": "EC50", "setting": "HCV replicon", "result": "10 to 1000", "unit": "nM"},
      {"measurement": "IC50", "setting": "[1]; [2]", "result": "> 1000", "unit": "nM"}
    ]},
    {"compound": "O=C(O)c1ccc2c(C3CCCCC3)c3n(c2c1)C/C(=N/O)Cc1ccccc1-3", "values": [
      {"measurement": "EC50", "setting": "HCV replicon", "result": "1000 to 10000", "unit": "nM"},
      {"measurement": "IC50", "setting": "[1]; [2]", "result": "20 to 1000", "unit": "nM"}
    ]},
    {"compound": "COc1cc2c(cn1)-c1c(C3CCCCC3)c3ccc(C(=O)NS(=O)(=O)N(C)C)cc3n1CC(C(=O)N1C[C@@H](C)O[C@@H](C)C1)=C2", "values": [
      {"measurement": "EC50", "setting": "HCV replicon", "result": "> 1000", "unit": "nM"},
      {"measurement": "IC50", "setting": "[1]; preincubation protocol", "result": "1000 to 10000", "unit": "nM"}
    ]},
    {"compound": "O=C(O)/C=C/c1cccc(-c2nc(C3(NC(=O)c4ccc5c(C6CCCCC6)c6n(c5c4)CC=Cc4ccccc4-6)CCCC3)c[nH]2)c1", "values": [
      {"measurement": "EC50", "setting": "HCV replicon", "result": "10 to 1000", "unit": "nM"},
      {"measurement": "IC50", "setting": "[1]; [2]", "result": "20 to 1000", "unit": "nM"}
    ]},
    {"compound": "COC(=O)c1ccc2c(C3CCCCC3)c3n(c2c1)CC(C(=O)O)=Cc1cc(OC)ccc1-3", "values": [
      {"measurement": "EC50", "setting": "HCV replicon", "result": "1000 to 10000", "unit": "nM"},
      {"measurement": "IC50", "setting": "[1]; [2]", "result": "20 to 1000", "unit": "nM"}
    ]},
    {"compound": "O=C(NS(=O)(=O)c1ccccc1)c1ccc2c(C3CCCCC3)c3n(c2c1)CC=Cc1ncccc1-3", "values": [
      {"measurement": "EC50", "setting": "HCV replicon", "result": "> 10000", "unit": "nM"},
      {"measurement": "IC50", "setting": "[1]; [2]", "result": "20 to 1000", "unit": "nM"}
    ]},
    {"compound": "O=C(O)c1ccc2c(C3CCCCC3)c3n(c2c1)CC(C(=O)O)Cc1ccccc1-3", "note": "(stereo not shown) [drawing 305]", "values": [
      {"measurement": "EC50", "setting": "HCV replicon", "result": "> 10000", "unit": "nM"},
      {"measurement": "IC50", "setting": "[1]; [2]", "result": "20 to 1000", "unit": "nM"}
    ]},
    {"compound": "O=C(O)c1ccc2c(c1)C1CCN(C(=O)N3CCOCC3)c3ccccc3C1=C2C1CCCCC1", "note": "(stereo not shown)", "values": [
      {"measurement": "EC50", "setting": "HCV replicon", "result": "1000 to 10000", "unit": "nM"},
      {"measurement": "IC50", "setting": "[1]; [2]", "result": "> 1000", "unit": "nM"}
    ]},
    {"compound": "COC(=O)c1ccc2c(C3CCCCC3)c3n(c2c1)CC(C(=O)O)=Cc1cc(OCc2ccccc2)ccc1-3", "values": [
      {"measurement": "EC50", "setting": "HCV replicon", "result": "1000 to 10000", "unit": "nM"},
      {"measurement": "IC50", "setting": "[1]; [2]", "result": "> 1000", "unit": "nM"}
    ]},
    {"compound": "CC1CN(C(=O)C2=Cc3ccccc3-c3c(C4CCCCC4)c4ccc(C(=O)NS(=O)(=O)N(C)C)cc4n3C2)CC(C)N1", "note": "(stereo not shown)", "values": [
      {"measurement": "EC50", "setting": "HCV replicon", "result": "10 to 1000", "unit": "nM"},
      {"measurement": "IC50", "setting": "[1]; [2]", "result": "20 to 1000", "unit": "nM"}
    ]},
    {"compound": "COC(=O)C1=Cc2ccncc2-c2c(C3CCCCC3)c3ccc(C(=O)OC)cc3n2C1", "values": [
      {"measurement": "EC50", "setting": "HCV replicon", "result": "1000 to 10000", "unit": "nM"},
      {"measurement": "IC50", "setting": "[1]; [2]", "result": "> 1000", "unit": "nM"}
    ]},
    {"compound": "COC(=O)c1ccc2c(C3CCCCC3)c3n(c2c1)CC(C(=O)N1C[C@@H](C)O[C@@H](C)C1)=Cc1ccccc1-3", "values": [
      {"measurement": "EC50", "setting": "HCV replicon", "result": "1000 to 10000", "unit": "nM"},
      {"measurement": "IC50", "setting": "[1]; [2]", "result": "> 1000", "unit": "nM"}
    ]}
  ]
}
